Source: patent US11510980B2, “Brartemicin analogues” (VICTORIA LINK LTD, priority 2017, dated 2022)

How the values were obtained:
wild-type GM-CSF BMDMs = assay: Cytokine/chemokine production by wild-type GM-CSF BMDMs on ligand-coated plates; format: cell-based, C57BL/6 mice; conditions: for IL-1β production / IL-6 production / MIP-2 production / TNF production: wild-type BMDMs, coated plates 0.1 or 1 nmol/well, 24 hours, ELISA
Experimental: (§1) Preparation of ligand-coated plates: Brartemicin analogues 9a-9i, TDM (Carbosynth, Sigma Aldrich), and TDB^14 were dissolved in CHCl3:MeOH (2:1, 1 mM), diluted in isopropanol ([…]) and added to 96-well plates (20 μL/well). The solvents were evaporated and the coated plates were used immediately.
Murine bone-marrow derived macrophages: For the preparation of murine bone-marrow derived macrophages, bone marrow cells were collected from the tibias and femurs of C57BL/6 mice and cultured (250,000 cells/mL) in complete RPMI media [RPMI-1640 (Gibco) with 10% heat inactivated fetal bovine serum (Gibco), 100 unit/mL penicillin-streptomycin (Gibco) and 2 mM Glutamax (Gibco)] supplemented with 50 ng/mL GM-CSF (clone X63/GM-CSF murine cells). Cells were incubated at 37° C. (5% CO2) for 8 days (cells fed by replacing half the media on days 3 and 6). On day 8, all media was removed and the cells were washed with Dulbecco's Phosphate-Buffered Saline (DPBS, Gibco) to remove any loosely-adherent cells. The BMDMs were harvested with StemPro Acutase (1 mL/well, 15 minutes at room temperature, Gibco) and seeded onto a pre-coated 96-well plate. The supernatant was collected and analysed for cytokine/chemokine production after 24 hours.
Cytokine analysis: IL-1β, IFN-γ, IL-6, TNF-α (BD Biosciences), IL-17, and MIP-2 (R&D) levels were determined via sandwich ELISA according to the manufacturer's instructions.
First, the ability of the compounds to activate GM-CSF BMDMs was determined by monitoring the secretion of the inflammatory cytokines TNF, IL-6, and IL-1β and the chemokine, MIP-2, in a ligand-coated plate assay (FIG. 2).
To gain insight into the capacity of the 2G-series of brartemicin analogues to induce an inflammatory immune response, the analogues were then screened for their ability to activate WT and Mincle^−/− BMDMs, with cellular activation being determined by the measurement of IL-1B using ELISA (FIG. 6).

mMincle+FcRγ = molecular target: T1, mMincle+FcRγ (Mus musculus, UniProt Q9R0Q8); assay: 2B4-NFAT-GFP reporter cells expressing mMincle+FcRγ; format: cell-based, murine; conditions: ligand-coated plates 0.01, 0.1 or 1 nmol/well, 18 hours
T1 construct: expressed in transfected cells; host or cells: 2B4-NFAT-GFP reporter cells
T1 sequence (Q9R0Q8 1-214): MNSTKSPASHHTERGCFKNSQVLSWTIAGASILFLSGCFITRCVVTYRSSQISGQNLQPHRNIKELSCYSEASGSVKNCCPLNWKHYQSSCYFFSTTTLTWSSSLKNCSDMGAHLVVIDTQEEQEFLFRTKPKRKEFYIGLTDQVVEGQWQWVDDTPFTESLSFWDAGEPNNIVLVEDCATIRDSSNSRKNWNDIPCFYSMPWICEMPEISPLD
T1 sequence (P20491 19-86 partner): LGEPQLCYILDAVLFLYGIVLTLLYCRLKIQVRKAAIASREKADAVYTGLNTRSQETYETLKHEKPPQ
Experimental: as §1
(§2) 2B4-NFAT-GFP reporter cells: 2B4-NFAT-GFP reporter cells expressing mMincle+FcRγ, hMincle+FcRγ, or FcRγ only have been previously described. […] The reporter cells were harvested, stained with propidium iodide, and analysed for NFAT-GFP expression using flow cytometry (FACS Calibur).
(§3) To determine whether the Mincle binding observed in Example 1 correlated with cellular activation, nuclear factor of activated T cells (NFAT)-green fluorescent protein (GFP) reporter cells expressing mMincle or hMincle coupled to FcRγ were stimulated using plates coated with TDM, TDB, brartemicin (9i), or analogues 9a-9h.
(§4) Activation of the reporter cells was measured through the production of GFP, which was monitored by flow cytometry (FIGS. 1b and 3c).
(§5) With the compounds 43a-h in hand, the ability of these analogues to bind and signal through Mincle was assessed (FIG. 5). Accordingly, NFAT-GFP reporter cells expressing mMincle+FcRγ, hMincle+FcRγ, or FcRγ-only were stimulated with the 2G-brartemicin analogues 43a-h, TDB, iPrOH, or the p-OC18H37 substituted analogue, 9f. Reporter cell activation was measured by the production of NFAT-GFP, which was analysed by flow cytometry.

hMincle-Ig = molecular target: T2, hMincle-Ig (Homo sapiens, UniProt Q9ULY5); assay: In vitro Mincle binding assay (ELISA) with hMincle-Ig fusion protein; conditions: plate-coated ligand 0.1 nmol/well
T2 construct: using soluble Mincle-Ig fusion-proteins; made in house
T2 sequence (Q9ULY5 41-219 limits assumed): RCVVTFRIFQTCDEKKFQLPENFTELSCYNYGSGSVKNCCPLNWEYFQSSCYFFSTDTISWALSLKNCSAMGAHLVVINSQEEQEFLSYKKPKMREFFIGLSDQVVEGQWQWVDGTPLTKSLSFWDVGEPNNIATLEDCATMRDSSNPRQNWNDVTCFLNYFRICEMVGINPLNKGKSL
Experimental: as §1
(§6) In vitro Mincle binding assay: The preparation of mMincle- and hMincle-Ig fusion proteins have been previously described. Plate-coated glycolipids 9a-i, TDB, and TDM were incubated with hMincle-Ig, mMincle-Ig, or hIgG1-Fc (Ig) [3 μg/mL in binding buffer (20 mM Tris-HCl, 150 mM NaCl, 1 mM CaCl2), 2 mM MgCl2, pH 7.0)]. Detection of bound protein was achieved via incubation with anti-hIgG-HRP followed by the addition of a colorimetric substrate and measurement of OD at 450 nm. Background was accounted for by subtracting the hIgG1-Fc OD450 values from fusion protein OD450 values
(§7) The synthesised brartemicin analogues prepared in Example 1 were first tested for their ability to bind to both human and murine Mincle in an enzyme-linked immunosorbent assay (ELISA) using soluble Mincle-Ig fusion-proteins (FIG. 1a).

hMincle+FcRγ = molecular target: T3, hMincle+FcRγ (Homo sapiens, UniProt Q9ULY5); assay: 2B4-NFAT-GFP reporter cells expressing hMincle+FcRγ; format: cell-based; conditions: ligand-coated plates 0.01, 0.1 or 1 nmol/well, 18 hours
T3 construct: expressed in transfected cells; host or cells: 2B4-NFAT-GFP reporter cells
T3 sequence (Q9ULY5 1-219): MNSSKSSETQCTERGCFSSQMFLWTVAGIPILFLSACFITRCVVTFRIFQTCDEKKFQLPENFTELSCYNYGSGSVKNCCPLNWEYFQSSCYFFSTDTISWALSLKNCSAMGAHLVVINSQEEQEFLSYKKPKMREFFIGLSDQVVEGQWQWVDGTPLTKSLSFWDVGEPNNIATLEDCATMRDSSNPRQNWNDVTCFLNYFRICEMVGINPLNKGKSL
Experimental: as §1, §2, §3, §4, §5

mMincle-Ig = molecular target: T4, mMincle-Ig (Mus musculus, UniProt Q9R0Q8); assay: In vitro Mincle binding assay (ELISA) with mMincle-Ig fusion protein; parameters: species or system murine; conditions: plate-coated ligand 0.1 nmol/well
T4 construct: using soluble Mincle-Ig fusion-proteins; made in house
T4 sequence (Q9R0Q8 46-214 limits assumed): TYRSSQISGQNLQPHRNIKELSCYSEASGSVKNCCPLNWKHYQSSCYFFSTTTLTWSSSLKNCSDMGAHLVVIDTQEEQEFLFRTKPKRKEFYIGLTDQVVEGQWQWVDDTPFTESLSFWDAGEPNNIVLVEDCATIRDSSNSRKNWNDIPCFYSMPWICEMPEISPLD
Experimental: as §1, §6, §7

SMILES	IL-1β production (wild-type GM-CSF BMDMs)	IL-6 production (wild-type GM-CSF BMDMs)	MIP-2 production (wild-type GM-CSF BMDMs)	TNF production (wild-type GM-CSF BMDMs)	activation of mMincle NFAT-GFP reporter cells (GFP by flow cytometry) (mMincle+FcRγ)	binding to hMincle-Ig (ELISA, OD at 450 nm) (hMincle-Ig)	activation of hMincle NFAT-GFP reporter cells (GFP by flow cytometry) (hMincle+FcRγ)	binding to mMincle-Ig (ELISA, OD at 450 nm) (mMincle-Ig)	activation of BMDMs (wild-type GM-CSF BMDMs)	activation of mMincle NFAT-GFP reporter cells (GFP by flow cytometry) (mMincle+FcRγ; listed as Brartemicin)
CCCCCCCOc1ccc(C(=O)OCC2O[C@H](O[C@H]3OC(COC(=O)c4ccc(OCCCCCCC)cc4O)[C@@H](O)C(O)C3O)C(O)C(O)[C@@H]2O)c(O)c1 (stereo partly drawn) [9b, 6,6′-Di-O-(4-heptyloxy-2-hydroxybenzoyl)-α,α′-D-trehalose]	modest production	modest production	modest production	modest production	activated mMincle and hMincle NFATGFP reporter cells but to a lesser extent than the C18 analogues	good binding	activated mMincle and hMincle NFATGFP reporter cells but to a lesser extent than the C18 analogues	good binding	–	–
Cc1cc(O)cc(O)c1C(=O)OC[C@H]1O[C@H](O[C@H]2O[C@H](COC(=O)c3c(C)cc(O)cc3O)[C@@H](O)[C@H](O)[C@H]2O)[C@H](O)[C@@H](O)[C@@H]1O [9i, Brartemicin]	did not induce the production of any of the cytokines measured	did not induce the production of any of the cytokines measured	did not induce the production of any of the cytokines measured	did not induce the production of any of the cytokines measured	did not significantly activate mMincle	did not bind hMincle- or mMincle-Ig to any great extent	not to activate	did not bind hMincle- or mMincle-Ig to any great extent	not to activate	not to activate
CCCCCCCOc1cc(C)c(C(=O)OCC2O[C@H](O[C@H]3OC(COC(=O)c4c(C)cc(OCCCCCCC)cc4O)[C@@H](O)C(O)C3O)C(O)C(O)[C@@H]2O)c(O)c1 (stereo partly drawn) [9h, 6,6′-Di-O-(4-heptyloxy-2-hydroxy-6-methylbenzoyl)-α,α′-D-trehalose]	significant production	significant production	significant production	significant production	strongly activated	good binding	strongly activated	good binding	–	–
